Test: Solubility in organic solvents
Format: physicochemical
Conditions: for solubility in acetone: solvent acetone; for solubility in ethanol: solvent ethanol; for solubility in ethyl acetate: solvent ethyl acetate; for solubility in isobutyl acetate: solvent isobutyl acetate
Source text: Curcumin is a bright red product once purified and maintains the vanilla fragrance due to the presence of methoxy groups from the starting product vanillin. It is soluble in acetone, ethyl acetate, ethanol, and isobutyl acetate. The solubility of bisdemethoxycurcumin, however, is slightly different. It is very soluble in ethanol and isobutyl acetate but acetone and ethyl acetate solubility is limited. Bisdemethoxycurcumin maintains a pumpkin-orange appearance and is more crystalline in nature than curcumin.

solubility in acetone | solubility in ethanol | solubility in ethyl acetate | solubility in isobutyl acetate | SMILES
soluble | soluble | soluble | soluble | COc1cc(/C=C/C(=O)CC(=O)/C=C/c2ccc(O)c(OC)c2)ccc1O [Curcumin, 1,7-bis(4-hydroxy-3-methoxyphenyl)-1,6-heptadiene-3,5-dione]
limited | very soluble | limited | very soluble | O=C(/C=C(O)/C=C/c1ccc(O)cc1)/C=C/c1ccc(O)cc1 [bisdemethoxycurcumin, 1,7-bis-(4-hydroxyphenyl)-1,6-heptadiene-3,5-dione]
